Assays:
[1] = Preliminary intravenous pharmacokinetics in rats; type: in vivo, rat; conditions: bolus injection 30 mg/kg i.v.
Experimental: The pharmacokinetics of intravenously administered NOX-100 was evaluated in mice, rats and dogs. Preliminary pharmacokinetic studies were conducted using a bolus injection of 30 mg/kg. Post injection, the drug was rapidly eliminated in all three species in a bi-exponential manner with a beta-t½ of approximately 6, 30 and 40 minutes in the mouse, rat and dog, respectively. […] The volume of distribution was around 20-30% of body weight and was similar in the three species. This is likely due to the hydrophilic nature of the drug and may reflect the distribution of NOX-100 primarily in the extracellular space.

beagle dogs [2] = assay: 14-day infusion toxicity in beagle dogs; type: in vivo
Experimental: Based on the findings from the 4-day study, doses of NOX-100 at 100, 500 and 1000 mg/kg/day infused over a period of 8 hours for 14 days were evaluated in beagle dogs. […] Therefore the high dose of 1000 mg/kg/day was reduced to 250 mg/kg/day on Days 8-14. […] The low dose of 100 mg/kg/day over a period of 8 hours was considered a no-effect level.
The no adverse effect level in dogs (the animal that appeared most sensitive to the effects of NOX-100) was 100 mg/kg given as an 8 hour daily infusion for 14 days. In this study, the NOX-100 was administered as an 11.1 mg/kg bolus loading dose and an 8-hour 11.1 mg/kg/hr infusion maintenance dose.

rats = assay: 4-day infusion toxicity in rats (2000 mg/kg over 2 hours); type: in vivo, rat
Experimental: The high dose of 2000 mg/kg of NOX-100 administered over a period of 2 hours was again tested in a group of rats for 4 consecutive days. […] Mitotic figures in basophilic tubules were also noted. These changes were considered treatment related. […] It appeared that female rats had lower plasma concentrations of NOX-100 compared to males.

[3] = system: rat model of shock induced by hemorrhage; assay: Hemorrhagic shock rat model; type: in vivo; conditions: rats, 0.1 mmol/kg/hour
Excerpt: Treatment of these rats with NOX-100 (0.1 mmol/kg/hour) reduced the blood volume needed to maintain the blood pressure during shock and improved mean arterial pressure after resuscitation.

male Wistar rats = assay: Preliminary acute single dose toxicity study in male Wistar rats; type: in vivo, rat; conditions: single I.V. 30-608 mg/kg or S.C. 250-1,000 mg/kg, 7-day observation
Experimental: NOX-100 has been evaluated in a number of toxicological studies, including acute (single-dose in rats and dogs; 4-day dosing in rats and dogs), subacute (14-day dosing in rats and dogs) studies, and in vitro mutagenicity testing.
In a preliminary acute single dose study, male Wistar rats were administered NOX-100 intravenously (I.V.) at doses of 30-608 mg/kg or subcutaneous (S.C.) doses of 250-1,000 mg/kg. Each dosing was followed by a 7-day observation period. […] Another group of male Wistar rats were administered NOX-100 with Fe^2+ as a single SC dose at 250-1,000 mg/kg. […] Without wishing to be bound by any theory, it is believed that this discoloration was due to the color of the compound at the high dose.

Wistar rats = assay: Endotoxin (LPS)-induced shock in Wistar rats; type: in vivo, rat
Excerpt: For example, in Wistar rats, shock induced by endotoxin such as LPS (lipopolysaccharide from Salmonella typhosa) is accompanied by severe hypotension, as well known in the art. […] In addition, the survival rate was increased by NOX-100.
Bacterial translocation across damaged intestinal epithelium into the circulation occurs in rats during endotoxin-induced shock, as evidenced by positive bacterial cultures grown from blood, mesenteric lymph nodes, spleen, or liver obtained after LPS challenge.
Moreover, in the rat shock model, liver injury occurs as a result of hypoperfusion and Kupffer cell activation with the release of cytokines by LPS.

beagle dogs [4] = assay: 1 or 4 day infusion toxicity in beagle dogs; type: in vivo, dog
mice = assay: Blood pressure studies in mice; type: in vivo
Excerpt: The lack of effect on normal blood pressure is advantageous for NOX-100 as a small molecule .NO scavenger.

Sprague-Dawley rats = assay: 14-day infusion toxicity in Sprague-Dawley rats; type: in vivo
Experimental: The safety profile of NOX-100 was further evaluated in Sprague-Dawley rats (10/sex/group for the main study and 24/sex/group for the satellite groups for plasma concentration determination). Rats were administered with NOX-100 at 0, 100, 500 or 2000 mg/kg/day by infusion over a period of 8 hours for 14 days.
The dose of 100 mg/kg/day is considered the no-effect-level in rats.

[5] = Water solubility and isotonicity of Sodium MGD; type: physicochemical
Experimental: Sodium MGD is a white to slightly yellowish powder with 1.5 molecules of co-crystallized water, and is water soluble up to 35% w/v at approximately 25° C. A 4.5% (w/v) solution of the Sodium MGD in water without any additives affords a near isotonic solution.

[6] = 2000 mg/kg over 2 hours, 4 consecutive days
[7] = 24 hours after hemorrhagic shock
[8] = females, 500 mg/kg/day, 14 days

Q: What does the source list for `CN(C[C@H](O)[C@@H](O)[C@H](O)[C@H](O)CO)C(=S)S` [NOX-100, N-methyl-D-glucamine dithiocarbamate]?
A: half-life ([1]; in vivo, iv, rat, read-out: beta-t½): ~30 min; clearance ([1]; rat, in vivo, iv, rats, read-out: clearance rate): 15 ± 1 mL/min/kg; volume of distribution ([1]; rats): 20-30 % of body weight; mortality (beagle dogs [2]; 1000 mg/kg/day, 8-hour infusion): One male dog in the high dose (1000 mg/kg/day) group died on Day 6; dose concentration relationship (beagle dogs [2]; dog, in vivo): proportional dose concentration relationship; mean plasma concentration throughout Days 1, 7 and 14 (beagle dogs [2]; dog, in vivo): similar; mean steady state plasma concentrations, males versus females (beagle dogs [2]; dog, in vivo): no differences; dose level of initial toxicity as multiple of the no adverse effect level (beagle dogs [2]; dogs): 5 times; no adverse effect level (beagle dogs [2]; dogs, 8 hour daily infusion for 14 days): 100 mg/kg; no-effect level (beagle dogs [2]; dogs, over a period of 8 hours, 14 days): 100 mg/kg/day; mean plasma concentration between 4 to 7.75 hours from the start of infusion (beagle dogs [2]; each day): remained constant; clinical and laboratory findings accompanied by renal lesions (beagle dogs [2]; generally at 500 or 1000 mg/kg/day): Clinical signs of deterioration, reduction in body weight and food intake together with changes in serum chemistry and creatinine clearance; histopathological examination of the animal that died (beagle dogs [2]; male, 1000 mg/kg/day): renal lesions consisting of tubular basophilia and dilatation, hyperplasia of the transitional epithelium of the papilla and some vascular hemorrhage or congestion; plasma concentrations in female rats compared to males (rats; 2000 mg/kg): lower; hemoglobin and hematocrit values (rats; [6]): slight decrease; red blood cell count (rats; [6]): slight decrease; animals with cortical tubular basophilia of the kidney, occasionally with tubular dilatation (rats; 5 males, 2000 mg/kg/day, 2-hour infusion, 4 consecutive days): 5/5; plasma concentrations on Day 4 compared to Day 1 (rats; HPLC, 1 and 1.75 hours after infusion, 2000 mg/kg): slightly higher; mitotic figures in basophilic tubules (rats; males, 2000 mg/kg/day, 4 consecutive days): noted; blood volume needed to maintain the blood pressure during shock [3]: reduced; mean arterial pressure after resuscitation [3]: improved; elevation of serum ornithine carbamoyltransferase (indicator of hepatic injury) [3, 7]: prevented; inflammatory gene expression [3, 7]: prevented; transcription factor activation [3, 7]: prevented; mortality and overt signs of toxicity (male Wistar rats): no mortality or overt signs of toxicity; survival rate (Wistar rats; Wistar rats, LPS shock): increased; LPS shock hypotension (Wistar rats; Wistar rats, dose 0.3 mmol/kg): gradually reversed towards normal blood pressure levels; plasma indices of liver injury (ornithine carbamoyltransferase, aspartate transaminase, fibrinogen) (Wistar rats; rat shock model, 200 mg/kg/day): all significantly reduced; reduction of bacterial translocation (Wistar rats; rats, endotoxin-induced shock, prior infusion 200 mg/kg/day): about 70%; pathological findings (beagle dogs [4]; 2000 mg/kg/day): thickening of the duodenal wall and tubular dilatation of the kidney with basophilia in the cortex and vacuolation in the areas of cortical tubules; body weight and food consumption (beagle dogs [4]; 500-2000 mg/kg/day, 8-hour infusion, 1 or 4 days): decreased; plasma concentrations on Day 4 compared to Day 1 (beagle dogs [4]; 2 hours from the start of infusion, males and females): apparent increases; doses at which signs of adverse effects were first observed (beagle dogs [4]; dogs): 500 to 2000 mg/kg/day; effect on hypotensive effect of nitroprusside (mice; co-administration with sodium nitroprusside (.NO donor)): reduced the hypotensive effect of nitroprusside; effect on blood pressure (mice; intravenous infusion of NOX-100 alone): did not affect blood pressure; microscopic findings in urinary bladder and duodenum (Sprague-Dawley rats; 2000 mg/kg/day, 14 days): hyperplasia of the urinary bladder and increased mitotic figures and dilatation of lymphatic vessels in the duodenum; clinical chemistry, urinary output and kidney weight changes (Sprague-Dawley rats; 8-hour infusion, 14 days): Elevations in blood urea nitrogen and creatinine, increases in urinary output and kidney weights; clinical signs of salivation (Sprague-Dawley rats; 8-hour infusion, 14 days): noted mostly at 2000 mg/kg/day and occasionally in the lower dose groups; microscopic changes in the kidney (Sprague-Dawley rats; 8-hour infusion, 14 days): tubular epithelial basophilia, pyelitis at the papillary tip and hyperplasia of the pelvic transitional epithelium; treatment related deaths (Sprague-Dawley rats; 100, 500 or 2000 mg/kg/day, 8-hour infusion, 14 days): no treatment related deaths; dose concentration relationship (Sprague-Dawley rats; 100-2000 mg/kg/day): proportional dose concentration relationship; mean plasma concentrations between 4 to 7.75 hours from the start of infusion (Sprague-Dawley rats; each day): remained constant; kidney weights (Sprague-Dawley rats; [8]): increased; microscopic changes (kidney) (Sprague-Dawley rats; [8]): only seen in one rat; mean plasma concentrations between Days 1, 7 and 14 (Sprague-Dawley rats; rat, in vivo): similar; mean steady state plasma concentrations, males versus females (Sprague-Dawley rats; rat, in vivo): no differences; no-effect-level (Sprague-Dawley rats; rats, 8-hour infusion, 14 days): 100 mg/kg/day; observable toxicity (Sprague-Dawley rats; rats, doses of up to 2000 mg/kg/day, 14 consecutive days): little observable toxicity; water solubility ([5]; approximately 25° C.): up to 35 % w/v; concentration of solution in water that is near isotonic ([5]; in water without any additives): 4.5 % (w/v)

From patent US20140350097A1, “TREATMENT OF HYPOTENSION ASSOCIATED WITH HEMODIALYSIS” (priority 2013, published 2014)
